In patent EP2140864A2 (H. Lundbeck A/S, priority 2001, dated 2002):
Marks after values point to notes of the source that are not given here.

Key:
human GAL1 receptor = target: T1, human GAL1 receptor (Homo sapiens, UniProt P47211); assay: Radioligand binding at cloned human GAL1 receptor; details: indolones, read-out: Ki GalR1
T1 construct: expressed in transfected cells
T1 sequence (P47211 1-349): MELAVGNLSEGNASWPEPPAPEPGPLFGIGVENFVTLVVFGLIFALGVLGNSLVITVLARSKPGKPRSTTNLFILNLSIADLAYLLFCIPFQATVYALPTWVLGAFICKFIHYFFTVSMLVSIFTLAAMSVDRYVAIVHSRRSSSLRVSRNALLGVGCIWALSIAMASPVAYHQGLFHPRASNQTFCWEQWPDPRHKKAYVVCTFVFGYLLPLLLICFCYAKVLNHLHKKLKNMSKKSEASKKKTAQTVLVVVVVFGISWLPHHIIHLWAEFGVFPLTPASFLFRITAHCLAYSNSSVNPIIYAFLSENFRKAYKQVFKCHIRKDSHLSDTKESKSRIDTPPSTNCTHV
Outline: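 Membranes from CHO cells stably expressing human GAL2 and LM(tk-) cells stably expressing human GAL1, resuspended in binding buffer (10 mM NaCl, 20 mM HEPES, pH 7.4). Binding data fitted by nonlinear regression.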

NE transporter [1] = target: NE transporter (Rattus norvegicus, UniProt Q63380); assay: Binding at native NE transporter; details: Table 7; native transporter, head prints r (rat); read-out: rNE Uptk Ki
NE transporter (Rattus norvegicus, UniProt Q63380), sequence (Q63380 1-617): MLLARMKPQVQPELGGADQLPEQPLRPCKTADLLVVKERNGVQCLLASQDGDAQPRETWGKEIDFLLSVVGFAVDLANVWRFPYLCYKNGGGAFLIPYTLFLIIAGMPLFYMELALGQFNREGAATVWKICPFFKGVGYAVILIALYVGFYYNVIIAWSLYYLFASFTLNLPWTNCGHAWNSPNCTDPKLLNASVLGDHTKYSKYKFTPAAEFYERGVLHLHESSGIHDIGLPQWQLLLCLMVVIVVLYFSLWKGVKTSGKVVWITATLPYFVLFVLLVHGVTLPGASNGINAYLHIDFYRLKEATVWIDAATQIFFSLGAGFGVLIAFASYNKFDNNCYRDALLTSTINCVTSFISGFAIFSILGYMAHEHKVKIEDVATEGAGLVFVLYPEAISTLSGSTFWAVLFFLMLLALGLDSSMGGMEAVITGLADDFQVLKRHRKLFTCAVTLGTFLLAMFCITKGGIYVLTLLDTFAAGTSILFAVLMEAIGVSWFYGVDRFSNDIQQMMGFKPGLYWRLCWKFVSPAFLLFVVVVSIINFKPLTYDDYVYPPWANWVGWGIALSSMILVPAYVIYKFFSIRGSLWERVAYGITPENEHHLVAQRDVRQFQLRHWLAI
Description: (§1) The binding properties of the compounds of the present invention were evaluated at one or more cloned receptors or native, tissue-derived transporters, using protocols described below.
(§2) The methods to determine binding affinity at native transporters are described in the following publications: 5HT transporter and NE transporter (Owens et al., 1997), and DA transporter (Javitch et al, 1984).
(§3) Binding data were analyzed using nonlinear regression and statistical techniques available in the GraphPAD Prism package (San Diego, CA). Enzymatic assay data were derived from a standard curve of reference compound data.

NE transporter [2] = assay: Binding at native NE transporter; details: Table 8; Ki rNE Uptk divided by Ki hGAL3
Description: as §1, §2, §3

Male Sprague-Dawley rats = assay: Rat Forced Swim Test (FST); type: in vivo; details: for Climbing / Diving / Immobility / Swimming: single administration, 1 hr. before test
Description: The procedure used in this study was similar to that previously described (Porsolt, et al., 1978), except the water depth (30 cm in this procedure). The greater depth in this test prevented the rats from supporting themselves by touching the bottom of the cylinder with their feet. Swim sessions were conducted by placing rats in individual plexiglass cylinders (46 cm tall x 20 cm in diameter) containing 23-25°C water 30 cm deep (Porsolt, et al. used a depth of only 15 cm; also, see Detke, et al., 1995). Two swim tests were conducted always between 1200 and 1800 hours: an initial 15-min pretest followed 24 h later by a 5-minute test. […] All other test sessions were conducted between 1300 to 1700 hours. Following all swim sessions, rats were removed from the cylinders, dried with paper towels and placed in a heated cage for 15 minutes and returned to their home cages. All test sessions were videotaped using a Panasonic color video camera and recorder for scoring later.
Male Sprague-Dawley rats (Taconic Farms, NY) were used in all experiments. Rats were housed in pairs and maintained on a 12:12-h light-dark cycle. Rats were handled for 5 minutes each day for 5 days prior to behavioral testing.
The rat's behavior was rated at 5 second intervals during the 5 minute test as one of the following: • 1. Immobility- rat remained floating in the water without struggling and was only making those movements necessary to keep its head above water; • 2. Climbing - rat was making active movements with its forepaws in and out of the water, usually directed against the walls; • 3. Swimming - rat was making active swimming motions, more than necessary to merely maintain its head above water, e.g. moving around in the cylinder; and • 4. Diving - entire body of the rat was submerged.
All of the behavior scoring was done by a single rater, who was blind to the treatment condition. The rater was also present in the room throughout the entire test period.
All injections were given using 1 cc tuberculin syringe with 26 3/8 gauge needles (Becton-Dickinson, VWR Scientific, Bridgeport, NJ). The volume of injection was 1 ml/kg.
The drugs were dissolved in 100% N,N-dimethylacetamide. All administrations were given using 1 cc tuberculin syringes, to which a 3 inch, curved, stainless steel gavage needle was attached. The volume of administration was 1 ml/kg.
The compounds were dissolved in 100% N,N-dimethylacetamide. All administrations were given using 1 cc tuberculin syringes, to which a 3 inch, curved, stainless steel gavage needle was attached. The volume of administration was 1 ml/kg.
The forced swim test data (immobility, swimming, climbing, diving) were subjected to a randomized, one-way ANOVA and post hoc tests conducted using the Student-Newman-heuls test. The data were analyzed using the GBSTAT program, version 6.5 (Dynamics Microsystems, Inc., Silver Spring, MD, 1997). All data are presented as means ± S.E.M.

O=C1C(=Nc2ccc(C(F)(F)F)cc2)c2ccccc2N1c1ccccc1 [Example 95, 1-PHENYL-3-[[4-(TRIFLUOROMETHYL)PHENYL]IMINO]-1,3-DIHYDRO-2H-INDOL-2-ONE]
Ki (human GAL1 receptor): > 10 µM | Ki (NE transporter [1]): 6.1 µM | selectivity ratio rNE Uptk (NE transporter [2]): >100 | Climbing (Male Sprague-Dawley rats; 3 mg/kg p.o.): 2.6 ± 0.8 | Diving (Male Sprague-Dawley rats; 3 mg/kg p.o.): 0.0 ± 0.0 | Immobility (Male Sprague-Dawley rats; 3 mg/kg p.o.): 40 ± 3.3 | Swimming (Male Sprague-Dawley rats; 3 mg/kg p.o.): 17.1 ± 2.5 | Climbing (Male Sprague-Dawley rats; 10 mg/kg p.o.): 1.3 ± 0.5 | Diving (Male Sprague-Dawley rats; 10 mg/kg p.o.): 0.1 ± 0.1 | Immobility (Male Sprague-Dawley rats; 10 mg/kg p.o.): 52 ± 1.2^a | Swimming (Male Sprague-Dawley rats; 10 mg/kg p.o.): 6.9 ± 0.9^b | Climbing (Male Sprague-Dawley rats; 30 mg/kg p.o.): 1.0 ± 0.3 | Diving (Male Sprague-Dawley rats; 30 mg/kg p.o.): 0.0 ± 0.0 | Immobility (Male Sprague-Dawley rats; 30 mg/kg p.o.): 54 ± 0.9^a | Swimming (Male Sprague-Dawley rats; 30 mg/kg p.o.): 4.8 ± 0.7^b | antidepressant profile in the FST (conclusion) (Male Sprague-Dawley rats; overall conclusion of the study): does not produce antidepressant-like actions
